This passage reports IC50 results from ChEMBL document CHEMBL2029343, “Stereoselective synthesis of alpinoid-C and its analogues and study of their cytotoxic activity against cancer cell lines” (Bioorg Med Chem Lett, 2012).

Broadly, the pIC50 is −log10 of the IC50, conventionally taken in molar units.

Common to all, as to format: functional, cell-based
The test system of experiment [1] is U-937. Kind of experiment: Antiproliferative activity against human U937 cells after 48 hrs by MTT assay. As to conditions: U-937, 48 h. (In general: Tetrazolium dyes change colour on reduction, which living cells bring about.)
Experiment [2] has as its system THP-1. Kind of experiment: Antiproliferative activity against human THP1 cells after 48 hrs by MTT assay. As to conditions: THP-1, 48 h.
The test system of experiment [3] is COLO 205. Kind of experiment: Antiproliferative activity against human COLO205 cells after 48 hrs by MTT assay. As to conditions: COLO 205, 48 h.
The test system of experiment [4] is HepG2. The experiment can be described thus: Antiproliferative activity against human HepG2 cells after 48 hrs by MTT assay. As to conditions: HepG2, 48 h.
Experiment [5] has as its system B16-F10. Kind of experiment: Antiproliferative activity against mouse B16F10 cells after 48 hrs by MTT assay. As to conditions: B16-F10, 48 h.

pIC50: −log10 of the molar value.

Regarding `O=C(/C=C/[C@H](O)Cc1ccccc1)CCc1ccccc1`, the pIC50 in experiment [1] is 3.86; in experiment [2] it was 3.92; in experiment [3] it was 3.71; in experiment [4], 3.73; in experiment [5], 3.89.

With `O=C(/C=C/[C@@H](O)Cc1ccccc1)CCc1ccccc1`, the negative-log IC50 (pIC50) is 3.77 in experiment [1]; 3.71 in experiment [2]; 3.30 in experiment [3]; 3.45 in experiment [4]; 3.47 in experiment [5].

With `COc1ccc(CCC(=O)/C=C/[C@H](O)Cc2ccccc2)cc1OC`, the negative logarithm of the IC50 (pIC50) in experiment [1] was 4.65; in experiment [2], 5.12; in experiment [3] it was 4.95; in experiment [4], 4.49; in experiment [5], 4.42.

As to `COc1ccc(CCC(=O)/C=C/[C@@H](O)Cc2ccccc2)cc1OC`, the pIC50 was 4.50 in experiment [1]; 4.49 in experiment [2]; 5.14 in experiment [3]; 4.27 in experiment [4]; 4.01 in experiment [5].

With `COc1cc([C@@H]2c3cc4c(cc3[C@@H](O[C@@H]3O[C@@H]5CO[C@@H](C)O[C@H]5[C@H](O)[C@H]3O)[C@H]3COC(=O)[C@H]23)OCO4)cc(OC)c1O` [ETOPOSIDE], the negative-log IC50 (pIC50) is 6.37 in experiment [3], 5.32 in experiment [4] and 4.73 in experiment [5].
